Source: the NIST ThermoML archive (doi:10.1016/j.jct.2019.01.014)
Where “and” joins values, the source holds several entries; their conditions need not be identical. Equal entries are not always repeated.

Legend:
[1] = Crystal, Calculated from knudsen effusion weight loss
[2] = molar enthalpy of vaporization or sublimation; details: Crystal, Static calorimetry

O=C1CCCCCN1 [1-aza-2-cycloheptanone]
Details	molar enthalpy [kcal/mol]	vapor or sublimation pressure
[1], 293.7 K	–	0.0001506 kPa and 0.0001518 kPa and 0.0001508 kPa
[1], 295.7 K	–	0.0001889 kPa and 0.000183 kPa and 0.000182 kPa
[1], 296.6 K	–	0.0002196 kPa and 0.0002191 kPa and 0.0002211 kPa
[1], 298.19 K	–	0.0002627 kPa and 0.0002587 kPa and 0.0002716 kPa
[1], 299.67 K	–	0.0003254 kPa and 0.0003117 kPa and 0.0003173 kPa
[1], 301.1 K	–	0.0003753 kPa and 0.0003757 kPa and 0.0003791 kPa
[1], 302.69 K	–	0.0004428 kPa and 0.0004363 kPa and 0.0004403 kPa
[1], 304.15 K	–	0.0005432 kPa and 0.0005228 kPa and 0.0005341 kPa
[1], 305.59 K	–	0.0006305 kPa and 0.0006272 kPa and 0.0006374 kPa
[1], 307.18 K	–	0.0007318 kPa and 0.0007265 kPa and 0.0007404 kPa
[1], 308.66 K	–	0.0008828 kPa and 0.0009064 kPa and 0.0008695 kPa
[1], 310.1 K	–	0.001048 kPa and 0.001045 kPa and 0.001038 kPa
[2], 350.03 K	20.9	–

S=C1CCCCCN1 [azepane-2-thione]
Details	molar enthalpy [kcal/mol]	vapor or sublimation pressure
[1], 318.18 K	–	9.46e-05 kPa and 9.18e-05 kPa and 9.11e-05 kPa
[1], 320.16 K	–	0.0001201 kPa and 0.0001211 kPa and 0.0001173 kPa
[1], 322.08 K	–	0.0001485 kPa and 0.0001484 kPa and 0.0001469 kPa
[1], 324.2 K	–	0.0001813 kPa and 0.0001821 kPa and 0.0001901 kPa
[1], 326.15 K	–	0.0002346 kPa and 0.0002296 kPa and 0.0002407 kPa
[1], 328.08 K	–	0.0002879 kPa and 0.0002891 kPa and 0.0002869 kPa
[1], 330.18 K	–	0.0003569 kPa and 0.0003533 kPa and 0.0003704 kPa
[1], 332.12 K	–	0.0004537 kPa and 0.0004424 kPa and 0.0004677 kPa
[1], 334.07 K	–	0.0005566 kPa and 0.0005557 kPa and 0.0005502 kPa
[1], 336.18 K	–	0.0006862 kPa and 0.0006759 kPa and 0.0007079 kPa
[1], 338.15 K	–	0.000897 kPa and 0.0008658 kPa and 0.0008434 kPa
[1], 340.08 K	–	0.001048 kPa and 0.001057 kPa and 0.001058 kPa
[2], 386.11 K	23.5	–
